According to patent US20230021483A1, “[…] […] METHOD AND CLASSIFICATION OF PHARMACEUTICAL COMPONENTS BY USING TRANSCRIPTOMES” (National Institutes of Biomedical Innovation, Health and …, priority 2016, published 2023):
Peptide text beside a SMILES is read from it. * marks the point of attachment. X1 = CCCCCCCCCCCCCCCC(=O)OCC(C*)OC(=O)CCCCCCCCCCCCCCC; Palmitoyl = CCCCCCCCCCCCCCCC(=O)*

Legend:
Format in all cases: in vivo, C57BL/6 mice
circulating blood cells = assay: Hematological cell count of peripheral blood 6 h after adjuvant administration (VetScan HMII); conditions: mouse, in vivo
Procedure: Take about 200 μL of blood from the retro-orbital venous plexus with a non-heparinized capillary tube and place the blood into a 1.5 mL tube comprising 2 μL of 10% EDTA-2K for hematological testing. Thoroughly mix the sample by gentle tapping. Stored at room temperature until hematological testing.
The hematological cell count was found using VetScan HMII (Abaxis). 50 μl of EDTA-2K blood sample was diluted by adding 250 μl of saline. Measurements are taken with VetScan HMII by following the instruction.
In a preliminary experiment, FCA and ALM were tested at different points up to 72 hours. […] At 6 hours after adjuvant administration, LV, SP, and LN (both sides) were removed to study the gene expression thereof by using Affimetrix Genechip microarray system (Affymetrix). The sampled organs were each placed in a tube containing RNAlater. The tube was maintained at 4° C. overnight, and stored at −80° C. until use. Blood was also collected after 6 hours from adjuvant administration for general hematological testing. About 200 μL of blood was taken from the retro-orbital venous plexus with a non-heparinized capillary tube and placed into a 1.5 mL tube comprising 2 μL of 10% EDTA-2K for hematological testing. The hematological cell count was found using VetScan HMII (Abaxis). 50 μl of EDTA-2K blood sample was diluted by adding 250 μl of saline. Measurements were taken with VetScan HMII by following the instruction.
The effect of adjuvant administration with respect to the changes in several hematological parameters was investigated. The following parameters were studied: white blood cells (WBC), lymphocytes (LYM), monocytes (MON), granulocytes (GRA), relative (%) content of lymphocytes (LY %), relative (%) content of monocytes (MO %), relative (%) content of granulocytes (GR %), red blood cells (RBC), hemoglobins (Hb, HGB), hematocrits (HCT), mean corpuscular volume (MCV), mean corpuscular hemoglobins (MCH), mean corpuscular hemoglobin concentration (MCHC), red blood cell distribution width (RDW), platelets (PLT), platelet concentration (PCT), mean platelet volume (MPV), and platelet distribution width (PDW).

liver (LV) = assay: Whole organ transcriptome (GeneChip microarray) of liver 6 h after adjuvant administration: sDEGs, hierarchical clustering; as to adjuvant group (cluster) in LV: key: G1 (interferon signaling); G2 (metabolism of lipids and lipoproteins); G3 (response to stress); G4 (response to wounding); G5 (phosphate-containing compound metabolic process); G6 (phagosome); conditions: liver; for Number of gene probes with statistically significant changes (sDEGs), LV, Down / Number of gene probes with statistically significant changes (sDEGs), LV, Up: i.d. administration, 6 h after adjuvant; for Number of gene probes with statistically significant changes (sDEGs), LV, Down: fold change <0.667, p<0.01, customized PA call=1; for Number of gene probes with statistically significant changes (sDEGs), LV, Up: fold change >1.5, p<0.01, customized PA call=1
spleen (SP) = assay: Whole organ transcriptome (GeneChip microarray) of spleen 6 h after adjuvant administration: sDEGs, hierarchical clustering; as to adjuvant group (cluster) in SP: key: G1 (interferon signaling); G2 (metabolism of lipids and lipoproteins); G3 (response to stress); G4 (response to wounding); G5 (phosphate-containing compound metabolic process); G6 (phagosome); conditions: for Number of gene probes with statistically significant changes (sDEGs), SP, Down / Number of gene probes with statistically significant changes (sDEGs), SP, Up: i.d. administration; for Number of gene probes with statistically significant changes (sDEGs), SP, Down: fold change <0.667, p<0.01, customized PA call=1, 6 h after adjuvant; for Number of gene probes with statistically significant changes (sDEGs), SP, Up: fold change >1.5, p<0.01, customized PA call=1, 6 h after adjuvant
[1] = tested on: inguinal lymph nodes (LN); assay: Whole organ transcriptome (GeneChip microarray) of draining inguinal lymph nodes 6 h after adjuvant administration: sDEGs, gene modules, hierarchical clustering; as to adjuvant group (cluster) in LN: key: G1 (interferon signaling); G2 (metabolism of lipids and lipoproteins); G3 (response to stress); G4 (response to wounding); G5 (phosphate-containing compound metabolic process); G6 (phagosome); conditions: for Number of gene probes with statistically significant changes (sDEGs), LN, Down / Number of gene probes with statistically significant changes (sDEGs), LN, Up: i.d. administration, 6 h after adjuvant; for Number of gene probes with statistically significant changes (sDEGs), LN, Down: fold change <0.667, p<0.01, customized PA call=1; for Number of gene probes with statistically significant changes (sDEGs), LN, Up: fold change >1.5, p<0.01, customized PA call=1
LV, SP and LNs = assay: Whole organ transcriptome across organs (adjuvant gene space): gene responses and adjuvant grouping; conditions: hierarchical clustering; LV, SP and/or LNs
[2] = tested on: preferentially upregulated genes in LV, SP, LN; assay: Z-score-based differential gene expression analysis (adjuvant group- or adjuvant-associated genes, 40 module mapping, TargetMine annotation); conditions: z-score selected genes; TargetMine and IPA upstream cytokine analyses
Description: Each sample's FC value was converted into a z-score on a gene basis by using the entire data set for each organ. The Z-score of the triplicates of interest were summed for each adjuvant. For example, the three sample z-score in the LV sample following cdiGMP administration was summed on a gene-by-gene basis, after which the summed scores of >3 genes were selected as relatively preferentially expressed genes in the LV after cdiGMP administration. The following threshold was applied for selections. […] G2^LV: ALM_IP(z>1) & bCD(z>1) & ENDCN(z>1) & FCA(z>1). […] G4^LV: MALP2s(z>3). […] G2^SP: ENDCN_x2+ENDCN_x3(z>2) & ALM_IP(z>3) & bCD(z>3). […] G4^SP: ADX_ID_x2+ADX_ID_x3(z>2) & ADX_IP(z>3) & MALP2s(z>3). […] G2^LN: bCD(z>3) & FCA(z>3). […] G5^LN: K3(z>1.5) & K3SPG_x1+K3SPG_x2(z>1) & D35_x1+D35_x3(z>1). G6^LN: AddaVax(z>3).

Molecule	monocytosis (monocytes in blood) (circulating blood cells)	adjuvant group (cluster) in LV (liver (LV); hierarchical clustering)	Number of gene probes with statistically significant changes (sDEGs), LV, Down (liver (LV))	Number of gene probes with statistically significant changes (sDEGs), LV, Up (liver (LV))	adjuvant group (cluster) in SP (spleen (SP); hierarchical clustering)	Number of gene probes with statistically significant changes (sDEGs), SP, Down (spleen (SP))	Number of gene probes with statistically significant changes (sDEGs), SP, Up (spleen (SP))	module M40^LN (immune system process; dendritic cells, macrophages, neutrophils, stromal cells) ([1]; LN, 6 h)	adjuvant group (cluster) in LN ([1]; hierarchical clustering, lymph node)	Number of gene probes with statistically significant changes (sDEGs), LN, Down ([1]; lymph node)	Number of gene probes with statistically significant changes (sDEGs), LN, Up ([1]; lymph node)	adjuvant group (cluster) within the adjuvant gene space (LV, SP and LNs)	adjuvant group-associated biological features [2]	leukopenia (circulating blood cells)	lymphopenia (circulating blood cells)
CCCCCCCCCCCCCCCC(=O)N[C@@H](CSCC(COC(=O)CCCCCCCCCCCCCCC)OC(=O)CCCCCCCCCCCCCCC)C(=O)N[C@@H](CO)C(=O)N[C@@H](CCCCN)C(=O)N[C@@H](CCCCN)C(=O)N[C@@H](CCCCN)C(=O)N[C@@H](CCCCN)C(=O)O (stereo partly drawn) [Pam3CSK4, Pam-3-Cys-Ser-Lys-Lys-Lys-Lys] (Palmitoyl-C(X1)SKKKK-OH)	clearly induced	–	–	–	–	–	–	–	–	–	–	–	–	–	–
Polyinosine-polycytidylic acid [PolyIC]	–	G1	1122	516	G1	738	1360	strongly induced	G1	1460	2203	group (G) 1	strongly associated with type I and type II interferon responses	caused leukopenia	strongly induced
Nc1nc2c(ncn2[C@@H]2O[C@@H]3COP(=O)(O)O[C@H]4[C@@H](O)[C@H](n5cnc6c(=O)[nH]c(N)nc65)O[C@@H]4COP(=O)(O)O[C@H]3[C@H]2O)c(=O)[nH]1 [cdlGMP]	–	–	218	280	–	261	707	–	–	908	1579	–	–	–	–
